The values below come from patent US10544143B2, “4-azaindole compounds” (BRISTOL-MYERS SQUIBB COMPANY, priority 2017, dated 2020).

SMILES strings stand for the structures.

One assay concerns the target human TLR9 (Homo sapiens (Human), UniProt Q9NR96). Kind of assay: TLR9 inhibition reporter assay (HEK-Blue SEAP).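 Further: SEAP driven by an IFN-β minimal promoter with NF-κB and AP-1 sites, read after 22 h, compounds dosed 0.05 nM–50 µM, inhibition scaled between agonist plus DMSO and reference-inhibitor wells.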 The settings on record: read-out: TLR9 IC50; HEK-Blue cells overexpressing human TLR9, SEAP reporter, ODN2006 5 nM. A general note: Reporter assays use an easily measured gene product as a stand-in for the process of interest.
In the next assay the target is human TLR7 (Homo sapiens (Human), UniProt Q9NYK1). Put plainly: TLR7 inhibition reporter assay (HEK-Blue SEAP). It is filed as cell-based. The settings on record: HEK-Blue cells overexpressing human TLR7, SEAP reporter, gardiquimod 7.5 μM.
The next assay deals with human TLR8 (Homo sapiens (Human), UniProt Q9NR97). Put plainly: TLR8 inhibition reporter assay (HEK-Blue SEAP).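 Further: SEAP driven by IFN-β minimal promoter carrying NF-κB and AP-1 sites, compounds dosed 0.05 nM to 50 µM for 22 h, inhibition scaled between agonist-plus-DMSO and reference-inhibitor wells.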 The note with it: read-out: TLR8 IC50; HEK-Blue cells overexpressing human TLR8, SEAP reporter, R848 15.9 μM.
Sequence of human TLR8 (Q9NR97 27-1041): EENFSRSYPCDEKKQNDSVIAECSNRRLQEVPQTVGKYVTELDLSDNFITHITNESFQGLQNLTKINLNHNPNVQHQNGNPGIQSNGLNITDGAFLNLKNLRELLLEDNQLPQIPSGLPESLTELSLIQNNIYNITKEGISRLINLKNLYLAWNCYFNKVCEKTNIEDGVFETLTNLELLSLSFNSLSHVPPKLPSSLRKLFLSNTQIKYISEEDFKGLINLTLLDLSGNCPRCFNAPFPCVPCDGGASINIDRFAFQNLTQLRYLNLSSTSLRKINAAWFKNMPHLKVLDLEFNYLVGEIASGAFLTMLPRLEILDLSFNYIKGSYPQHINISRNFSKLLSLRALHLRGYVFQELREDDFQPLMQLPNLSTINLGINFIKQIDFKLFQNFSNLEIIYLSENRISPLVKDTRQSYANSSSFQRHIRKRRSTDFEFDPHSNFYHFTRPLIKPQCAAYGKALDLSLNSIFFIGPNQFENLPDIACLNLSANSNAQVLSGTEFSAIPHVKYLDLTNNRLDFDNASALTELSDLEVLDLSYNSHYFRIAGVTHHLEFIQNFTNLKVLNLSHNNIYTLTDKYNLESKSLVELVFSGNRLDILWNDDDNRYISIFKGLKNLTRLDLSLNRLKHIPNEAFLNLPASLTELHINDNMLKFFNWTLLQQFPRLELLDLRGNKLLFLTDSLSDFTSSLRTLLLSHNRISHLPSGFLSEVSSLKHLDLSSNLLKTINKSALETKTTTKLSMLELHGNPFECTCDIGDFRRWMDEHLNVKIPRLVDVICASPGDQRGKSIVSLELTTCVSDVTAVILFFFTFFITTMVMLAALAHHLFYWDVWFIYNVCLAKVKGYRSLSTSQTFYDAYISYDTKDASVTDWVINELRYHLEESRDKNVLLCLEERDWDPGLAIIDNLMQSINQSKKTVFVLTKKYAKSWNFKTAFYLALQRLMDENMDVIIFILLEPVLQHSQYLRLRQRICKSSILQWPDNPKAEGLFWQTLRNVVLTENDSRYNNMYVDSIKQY

Sequence of human TLR7 (Q9NYK1 27-1049): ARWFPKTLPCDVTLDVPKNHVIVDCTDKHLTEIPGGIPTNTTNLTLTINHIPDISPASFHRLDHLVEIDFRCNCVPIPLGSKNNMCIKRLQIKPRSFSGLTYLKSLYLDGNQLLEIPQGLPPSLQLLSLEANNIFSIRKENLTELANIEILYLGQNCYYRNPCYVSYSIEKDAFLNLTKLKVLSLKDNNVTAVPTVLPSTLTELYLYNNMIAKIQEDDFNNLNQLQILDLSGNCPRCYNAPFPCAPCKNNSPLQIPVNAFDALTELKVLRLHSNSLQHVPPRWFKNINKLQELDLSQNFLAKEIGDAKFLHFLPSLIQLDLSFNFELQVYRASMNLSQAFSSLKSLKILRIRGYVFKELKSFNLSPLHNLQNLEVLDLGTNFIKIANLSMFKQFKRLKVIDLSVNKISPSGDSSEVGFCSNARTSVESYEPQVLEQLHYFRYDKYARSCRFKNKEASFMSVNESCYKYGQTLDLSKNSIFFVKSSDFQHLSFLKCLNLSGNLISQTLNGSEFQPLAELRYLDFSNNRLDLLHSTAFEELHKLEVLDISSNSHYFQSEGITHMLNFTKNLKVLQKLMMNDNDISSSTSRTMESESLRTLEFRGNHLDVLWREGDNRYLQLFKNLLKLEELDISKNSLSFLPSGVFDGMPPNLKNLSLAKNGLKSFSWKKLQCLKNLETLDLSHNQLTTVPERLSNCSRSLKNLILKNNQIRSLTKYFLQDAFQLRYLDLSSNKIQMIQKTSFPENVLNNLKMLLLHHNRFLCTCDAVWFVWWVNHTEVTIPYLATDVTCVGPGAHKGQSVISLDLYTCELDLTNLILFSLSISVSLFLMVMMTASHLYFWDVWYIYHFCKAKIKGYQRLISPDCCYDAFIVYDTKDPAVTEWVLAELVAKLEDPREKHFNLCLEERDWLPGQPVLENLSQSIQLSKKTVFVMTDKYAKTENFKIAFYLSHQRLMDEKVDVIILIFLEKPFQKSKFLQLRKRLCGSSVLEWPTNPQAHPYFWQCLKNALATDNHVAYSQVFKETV
Sequence of human TLR9 (Q9NR96 26-1032): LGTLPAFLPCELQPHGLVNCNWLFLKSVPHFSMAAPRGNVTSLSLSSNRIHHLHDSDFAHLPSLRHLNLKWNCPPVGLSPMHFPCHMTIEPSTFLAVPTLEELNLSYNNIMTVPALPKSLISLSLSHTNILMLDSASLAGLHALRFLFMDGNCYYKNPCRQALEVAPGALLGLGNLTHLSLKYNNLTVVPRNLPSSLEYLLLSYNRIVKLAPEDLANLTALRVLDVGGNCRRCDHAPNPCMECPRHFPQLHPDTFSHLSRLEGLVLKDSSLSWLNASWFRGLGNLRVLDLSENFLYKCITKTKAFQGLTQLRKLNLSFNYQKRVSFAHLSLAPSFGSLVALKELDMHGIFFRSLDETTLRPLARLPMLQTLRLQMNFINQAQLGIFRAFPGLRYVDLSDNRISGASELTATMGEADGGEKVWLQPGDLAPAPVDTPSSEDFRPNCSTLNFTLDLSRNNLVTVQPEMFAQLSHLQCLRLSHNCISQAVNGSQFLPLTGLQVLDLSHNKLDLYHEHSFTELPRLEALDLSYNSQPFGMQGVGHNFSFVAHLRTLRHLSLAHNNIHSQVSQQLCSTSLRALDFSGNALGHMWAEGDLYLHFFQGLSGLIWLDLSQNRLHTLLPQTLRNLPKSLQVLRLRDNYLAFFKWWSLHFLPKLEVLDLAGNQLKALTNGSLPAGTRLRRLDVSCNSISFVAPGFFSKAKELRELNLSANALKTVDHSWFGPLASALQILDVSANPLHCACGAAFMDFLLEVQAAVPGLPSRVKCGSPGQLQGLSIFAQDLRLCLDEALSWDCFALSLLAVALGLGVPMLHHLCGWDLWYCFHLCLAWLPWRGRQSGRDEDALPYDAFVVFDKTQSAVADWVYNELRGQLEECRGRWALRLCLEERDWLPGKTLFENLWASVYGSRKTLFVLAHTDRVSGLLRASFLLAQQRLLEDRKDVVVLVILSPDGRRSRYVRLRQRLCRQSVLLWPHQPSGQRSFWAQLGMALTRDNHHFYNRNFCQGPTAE

As to `COc1cc(-c2[nH]c3ccc(OCC4CCN(CC(C)(C)O)CC4)nc3c2C(C)C)cn2ncnc12` [Example 597, 1-(4-(((3-isopropyl-2-(8-methoxy-[1,2,4]triazolo[1,5-a]pyridin-6-yl)-1H-pyrrolo[3,2-b]pyridin-5-yl)oxy)methyl)piperidin-1-yl)-2-methylpropan-2-ol], the IC50 (in general, the concentration at which inhibition is half-maximal) on human TLR9 came out at 918 nM; on human TLR7 it was 1.3 nM; at human TLR8 it was 1.2 nM.

Regarding `COc1cc(-c2[nH]c3ccc(OCC4CCN(C(C)C)CC4)nc3c2C(C)C)cn2ncnc12` [Example 598, 6-(3-isopropyl-5-((1-isopropylpiperidin-4-yl)methoxy)-1H-pyrrolo[3,2-b]pyridin-2-yl)-8-methoxy-[1,2,4]triazolo[1,5-a]pyridine], the IC50 on human TLR9 is 949 nM; against human TLR7 it was 0.81 nM; at human TLR8, 3.1 nM.

Turning to `COc1cc(-c2[nH]c3ccc(OCC4CN(CC(C)(C)O)C4)nc3c2C(C)C)cn2ncnc12` [Example 599], the half-inhibitory concentration (IC50) on human TLR9 was determined as 3050 nM; against human TLR7, 2.7 nM; on human TLR8, 4.8 nM.

For the molecule `COc1cc(-c2[nH]c3ccc(OC4CCN(C)CC4)nc3c2C(C)C)cn2ncnc12` [Example 600, 6-(3-isopropyl-5-((1-methylpiperidin-4-yl)oxy)-1H-pyrrolo[3,2-b]pyridin-2-yl)-8-methoxy-[1,2,4]triazolo[1,5-a]pyridine], the concentration for half-maximal inhibition (IC50) on human TLR9 turned out to be 2050 nM; on human TLR7 it was 0.75 nM; on human TLR8, 6.2 nM.

Take `COc1ccc2[nH]c(-c3cc(OC)c4ncnn4c3)c(C(C)C)c2n1` [Example 601, 6-(3-isopropyl-5-methoxy-1H-pyrrolo[3,2-b]pyridin-2-yl)-8-methoxy-[1,2,4]triazolo[1,5-a] pyridine]: the 50% inhibitory concentration (IC50) at human TLR9 was more than 50000 nM; at human TLR7 it was 46 nM; at human TLR8, 46 nM.

Take `COc1cc(-c2[nH]c3ccc(OCC4CCN(CC(=O)N(C)C)CC4)nc3c2C(C)C)cn2ncnc12` [Example 602, 2-(4-(((3-isopropyl-2-(8-methoxy-[1,2,4]triazolo[1,5-a]pyridin-6-yl)-1H-pyrrolo[3,2-b]pyridin-5-yl)oxy)methyl)piperidin-1-yl)-N,N-dimethylacetamide]: the results for the IC50 at human TLR9, against human TLR7 and on human TLR8 were 1430 nM, 1.2 nM and 6.8 nM, respectively.

In the case of `COc1cc(-c2[nH]c3ccc(OC4CCN(C(C)C)CC4)nc3c2C(C)C)cn2ncnc12` [Example 603, 6-(3-isopropyl-5-((1-isopropylpiperidin-4-yl)oxy)-1H-pyrrolo[3,2-b]pyridin-2-yl)-8-methoxy-[1,2,4]triazolo[1,5-a]pyridine], the IC50 was found to be 1190 nM on human TLR9, 1.5 nM against human TLR7 and 5.2 nM on human TLR8.

Regarding `COc1cc(-c2[nH]c3ccc(OCC4CCN(CCS(C)(=O)=O)CC4)nc3c2C(C)C)cn2ncnc12` [Example 604, 6-(3-isopropyl-5-((1-(2-(methylsulfonyl)ethyl)piperidin-4-yl)methoxy)-1H-pyrrolo[3,2-b]pyridin-2-yl)-8-methoxy-[1,2,4]triazolo[1,5-a]pyridine], the figures for the half-inhibitory concentration (IC50) at human TLR9, against human TLR7 and on human TLR8 were 5910 nM, 2.8 nM and 2.5 nM, respectively.

As for `CCCN1CCC(COc2ccc3[nH]c(-c4cc(OC)c5ncnn5c4)c(C(C)C)c3n2)CC1` [Example 606, 6-(3-isopropyl-5-((1-propylpiperidin-4-yl)methoxy)-1H-pyrrolo[3,2-b]pyridin-2-yl)-8-methoxy-[1,2,4]triazolo[1,5-a]pyridine], the IC50 on human TLR9 was found to be 1710 nM; against human TLR7, 2.3 nM; at human TLR8 it was 3.9 nM.

Take `COc1cc(-c2[nH]c3ccc(OC4CCN(C5CCOCC5)CC4)nc3c2C(C)C)cn2ncnc12` [Example 607, 6-(3-isopropyl-5-((1-(tetrahydro-2H-pyran-4-yl)piperidin-4-yl)oxy)-1H-pyrrolo[3,2-b]pyridin-2-yl)-8-methoxy-[1,2,4]triazolo[1,5-a]pyridine]: the 50% inhibitory concentration (IC50) was determined as 1140 nM on human TLR9, 2.1 nM against human TLR7 and 2.6 nM at human TLR8.

As to `COc1cc(-c2[nH]c3ccc(OCC4CN(C)C4)nc3c2C(C)C)cn2ncnc12` [Example 608, 6-(3-isopropyl-5-((1-methylazetidin-3-yl)methoxy)-1H-pyrrolo[3,2-b]pyridin-2-yl)-8-methoxy-[1,2,4]triazolo[1,5-a]pyridine], the IC50 at human TLR9 is 1710 nM; on human TLR7, 1.1 nM; at human TLR8 it was 6.1 nM.

For the molecule `COc1cc(-c2[nH]c3ccc(OC4CCN(CC(=O)N(C)C)CC4)nc3c2C(C)C)cn2ncnc12` [Example 609, 2-(4-((3-isopropyl-2-(8-methoxy-[1,2,4]triazolo[1,5-a]pyridin-6-yl)-1H-pyrrolo[3,2-b]pyridin-5-yl)oxy)piperidin-1-yl)-N,N-dimethylacetamide], the concentration for half-maximal inhibition (IC50) was 2720 nM on human TLR9, 2.6 nM on human TLR7 and 23 nM at human TLR8.

For the molecule `COc1cc(-c2[nH]c3ccc(OC4CCC(N(C)C)CC4)nc3c2C(C)C)cn2ncnc12` (stereo not drawn) [Example 610, 4-((3-isopropyl-2-(8-methoxy-[1,2,4]triazolo[1,5-a]pyridin-6-yl)-1H-pyrrolo[3,2-b]pyridin-5-yl)oxy)-N,N-dimethylcyclohexan-1-amine], the IC50 was 1770 nM on human TLR9, 1.5 nM against human TLR7 and 14 nM at human TLR8.

For `CCCN(CCC)C1CCC(Oc2ccc3[nH]c(-c4cc(OC)c5ncnn5c4)c(C(C)C)c3n2)CC1` (stereo not drawn) [Example 611, 4-((3-isopropyl-2-(8-methoxy-[1,2,4]triazolo[1,5-a]pyridin-6-yl)-1H-pyrrolo[3,2-b]pyridin-5-yl)oxy)-N,N-dipropylcyclohexan-1-amine], the IC50 at human TLR9 worked out at 1930 nM; on human TLR7, 8.4 nM; on human TLR8, 17 nM.

On to `COc1cc(-c2[nH]c3ccc(OC4CN(C(C)C)C4)nc3c2C(C)C)cn2ncnc12` [Example 612, 6-(3-isopropyl-5-((1-isopropylazetidin-3-yl)oxy)-1H-pyrrolo[3,2-b]pyridin-2-yl)-8-methoxy-[1,2,4]triazolo[1,5-a]pyridine], for which the figures for the IC50 on human TLR9, against human TLR7 and on human TLR8 were 3930 nM, 13 nM and 56 nM, respectively.

For the molecule `COc1cc(-c2[nH]c3ccc(OC4CCN(CC(C)(C)O)CC4)nc3c2C(C)C)cn2ncnc12` [Example 613, 1-(4-((3-isopropyl-2-(8-methoxy-[1,2,4]triazolo[1,5-a]pyridin-6-yl)-1H-pyrrolo[3,2-b]pyridin-5-yl)oxy)piperidin-1-yl)-2-methylpropan-2-ol], the results for the IC50 on human TLR9, at human TLR7 and on human TLR8 were 1240 nM, 2 nM and 3.2 nM, respectively.

For the molecule `COc1cc(-c2[nH]c3ccc(OC4CCC(N(C)C)CC4)nc3c2C(C)C)cn2ncnc12` (stereo not drawn) [Example 614, 4-((3-isopropyl-2-(8-methoxy-[1,2,4]triazolo[1,5-a]pyridin-6-yl)-1H-pyrrolo[3,2-b]pyridin-5-yl)oxy)-N,N-dimethylcyclohexan-1-amine], the IC50 at human TLR9 was determined as 1010 nM; at human TLR7, 1.9 nM; at human TLR8 it was 13 nM.

As for `Cc1c(-c2[nH]c3ccc(C4CC(N(C)C(=O)CN(C)C)C4)nc3c2C(C)C)cn2ncnc2c1C` (stereo not drawn) [Example 615], the IC50 on human TLR9 turned out to be 1960 nM; at human TLR7, 2.4 nM; at human TLR8, 7.9 nM.

Consider `COc1cc(-c2[nH]c3ccc(C4CC(NCC5(C)COC5)C4)nc3c2C(C)C)cn2ncnc12` (stereo not drawn) [Example 616], for which the IC50 at human TLR9 was determined as 1280 nM; on human TLR7, 3.6 nM; at human TLR8, 1.5 nM.

Regarding `Cc1c(-c2[nH]c3ccc(C4CC(N)C4)nc3c2C(C)C)cn2ncnc2c1C` (stereo not drawn) [Example 617], the IC50 at human TLR9 stood at 20500 nM; on human TLR7 it was 2220 nM; on human TLR8, 1320 nM.

As for `Cc1c(-c2[nH]c3ccc(C4CC(N(C)C)C4)nc3c2C(C)C)cn2ncnc2c1C` (stereo not drawn) [Example 618], the IC50 is 3700 nM on human TLR9, 4.8 nM against human TLR7 and 4.6 nM on human TLR8.

Consider `COc1cc(-c2[nH]c3ccc(C4CC(NC(=O)CN(C)C)C4)nc3c2C(C)C)cn2ncnc12` (stereo not drawn) [Example 619], for which the IC50 at human TLR9 was found to be 865 nM; at human TLR7, 0.43 nM; at human TLR8, 3 nM.

Regarding `COc1cc(-c2[nH]c3ccc(C4CC(N)C4)nc3c2C(C)C)cn2ncnc12` (stereo not drawn) [Example 620], the IC50 on human TLR9 worked out at 223 nM; against human TLR7, 0.73 nM; at human TLR8, 2.4 nM.

Take `Cc1c(-c2[nH]c3ccc(C4CC(N(C)CCS(C)(=O)=O)C4)nc3c2C(C)C)cn2ncnc2c1C` (stereo not drawn) [Example 621]: the IC50 was found to be 14700 nM at human TLR9, 7 nM on human TLR7 and 7.5 nM on human TLR8.

In the case of `Cc1c(-c2[nH]c3ccc(C4CC(N(C)CC(=O)N(C)C)C4)nc3c2C(C)C)cn2ncnc2c1C` (stereo not drawn) [Example 622], the values for the IC50 at human TLR9, on human TLR7 and at human TLR8 were 5070 nM, 30 nM and 14 nM, respectively.

For the molecule `Cc1c(-c2[nH]c3ccc(C4CC(N(C)C)C4)nc3c2C(C)C)cn2ncnc2c1C` (stereo not drawn) [Example 623], the results for the IC50 at human TLR9, against human TLR7 and on human TLR8 were 3130 nM, 1.6 nM and 2 nM, respectively.

With `Cc1c(-c2[nH]c3ccc(C4CC(NCCS(C)(=O)=O)C4)nc3c2C(C)C)cn2ncnc2c1C` (stereo not drawn) [Example 624], the figures for the IC50 on human TLR9, on human TLR7 and on human TLR8 were 2570 nM, 3 nM and 2 nM, respectively.

For the molecule `COc1cc(-c2[nH]c3ccc(C4CC(N(C)C(=O)CN(C)C)C4)nc3c2C(C)C)cn2ncnc12` (stereo not drawn) [Example 625], the results for the IC50 at human TLR9, against human TLR7 and at human TLR8 were 978 nM, 0.72 nM and 10 nM, respectively.

Consider `Cc1c(-c2[nH]c3ccc(C4CC(N(C)CC5(C)COC5)C4)nc3c2C(C)C)cn2ncnc2c1C` (stereo not drawn) [Example 626], for which the IC50 was determined as 13500 nM at human TLR9, 29 nM against human TLR7 and 8 nM at human TLR8.
